Data published in the supplement of paper PMC10307832.

Key:
Experiment in all cases: relative viability (nuclei count vs DMSO), 5 days (fraction); higher = more cells survive
Quizartinib + Alpelisib = compound: CC(C)(C)c1cc(NC(=O)Nc2ccc(-c3cn4c(n3)sc3cc(OCCN5CCOCC5)ccc34)cc2)no1 [Quizartinib] + Cc1nc(NC(=O)N2CCC[C@H]2C(N)=O)sc1-c1ccnc(C(C)(C)C(F)(F)F)c1 [Alpelisib] (partner 2 µM)
Method in brief: (§1)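 Cells from lung cancer lines were seeded into 1536-well plates and, one day later, dosed by pin tool. Treatments were either a single drug or a fixed dose of an anchor drug with five library-drug doses (not always all listed) in √10 steps. After 5 days, nuclei were stained in a one-step fixation (final 0.05% Triton X-100, 1% formaldehyde, 1 ug/ml Hoechst) and counted on 4× images, and relative viability is the treated-to-vehicle nuclei ratio, as the median of duplicate plates.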

YM155 + Palbociclib = compound: COCC[n+]1c2c(n(Cc3cnccn3)c1C)C(=O)c1ccccc1C2=O [YM155] + CC(=O)c1c(C)c2cnc(Nc3ccc(N4CCNCC4)cn3)nc2n(C2CCCC2)c1=O [Palbociclib] (partner 0.5 µM)
Method in brief: as §1

YM155 + Bortezomib = compound: COCC[n+]1c2c(n(Cc3cnccn3)c1C)C(=O)c1ccccc1C2=O [YM155] + CC(C)C[C@H](NC(=O)[C@H](Cc1ccccc1)NC(=O)c1cnccn1)B(O)O [Bortezomib] (partner 0.002 µM)
Method in brief: as §1

YM155 + AZD7762 = compound: COCC[n+]1c2c(n(Cc3cnccn3)c1C)C(=O)c1ccccc1C2=O [YM155] + NC(=O)Nc1cc(-c2cccc(F)c2)sc1C(=O)N[C@H]1CCCNC1 [AZD7762] (partner 0.2 µM)
Method in brief: as §1

Cell Line	relative viability (Quizartinib + Alpelisib; first compound 0.001 µM)	relative viability (Quizartinib + Alpelisib; first compound 0.003162 µM)	relative viability (Quizartinib + Alpelisib; first compound 0.01 µM)	relative viability (Quizartinib + Alpelisib; first compound 0.03162 µM)	relative viability (Quizartinib + Alpelisib; first compound 0.1 µM)	relative viability (YM155 + Palbociclib; first compound 0.002 µM)	relative viability (YM155 + Palbociclib; first compound 0.006325 µM)	relative viability (YM155 + Palbociclib; first compound 0.02 µM)	relative viability (YM155 + Palbociclib; first compound 0.06325 µM)	relative viability (YM155 + Bortezomib; first compound 0.002 µM)	relative viability (YM155 + Bortezomib; first compound 0.006325 µM)	relative viability (YM155 + Bortezomib; first compound 0.02 µM)	relative viability (YM155 + Bortezomib; first compound 0.06325 µM)	relative viability (YM155 + AZD7762; first compound 0.002 µM)	relative viability (YM155 + AZD7762; first compound 0.006325 µM)	relative viability (YM155 + AZD7762; first compound 0.02 µM)	relative viability (YM155 + AZD7762; first compound 0.06325 µM)
H3255	0.55	0.619	0.795	0.63	0.797	0.324	0.305	0.351	0.319	0.711	0.719	0.858	0.693	0.886	0.913	1.05	0.796
NCI-H1755	0.798	0.851	0.975	0.917	0.923	0.439	0.478	0.456	0.453	0.941	0.894	1.03	0.923	0.478	0.445	0.427	0.493
IA-LM	0.695	0.761	0.808	0.789	0.844	–	–	–	–	0.806	0.78	0.874	0.737	–	–	–	–
NCI-H23	–	0.556	0.679	0.645	0.687	–	0.567	0.523	0.388	0.7	1.05	0.929	0.455	–	0.292	0.308	0.239
NCI-H661	0.594	0.708	0.384	0.565	0.905	0.405	0.401	0.418	0.327	0.894	0.983	0.835	0.848	–	–	–	–
PC-14	0.854	0.903	1.03	0.877	0.89	0.477	0.447	0.476	0.278	0.905	0.861	0.93	0.771	0.233	0.343	0.371	0.363
NCI-H647	1.01	1.06	1.25	1.13	1.33	0.348	0.424	0.423	0.238	0.777	1	0.826	0.792	0.429	0.509	0.407	0.0872
NCI-H1792	0.799	0.667	0.711	0.499	0.703	0.628	0.685	0.638	0.665	0.816	0.97	0.943	1	0.613	0.574	0.648	0.604
SW 900	–	–	–	–	–	–	0.586	0.579	0.608	–	–	–	–	–	0.543	0.825	0.64
EKVX	0.799	0.841	0.924	0.914	0.973	0.386	0.348	0.42	0.215	0.955	0.934	1.08	0.984	0.591	0.723	0.747	0.483
COR-L23	0.725	0.708	0.843	0.61	0.759	0.279	0.272	0.217	0.152	0.923	0.929	0.617	0.362	–	–	–	–
NCI-H1355	0.814	0.927	0.812	0.865	0.827	0.4	0.39	0.4	0.394	1.11	1.27	1.25	1.22	0.74	0.749	0.781	0.798
NCI-H2085	0.88	0.881	0.997	0.822	0.827	0.436	0.441	0.469	0.375	0.949	0.974	0.83	0.631	0.928	0.975	0.979	0.801
A-427	1.06	1	1.12	1.06	1.04	0.532	0.502	0.567	0.293	0.972	0.99	1.17	0.896	0.741	0.793	0.752	0.312
LOU-NH91	0.683	0.724	0.761	0.5	0.771	0.527	0.509	0.628	0.544	0.704	0.521	0.487	0.555	0.766	0.756	0.769	0.8
CAL-12T	1.03	1.08	1.29	0.467	1.47	0.45	0.582	0.489	0.433	–	1.04	1.29	0.895	0.621	0.715	0.672	0.534
NCI-H520	0.792	0.768	0.929	0.837	0.597	0.175	0.205	0.238	0.304	0.586	0.62	0.653	1	–	–	–	–
LCLC-103H	1.01	0.533	0.94	1.04	0.943	0.472	0.471	0.491	0.499	1.01	1.06	1.17	1.1	0.752	0.821	0.832	0.781
NCI-H1651	0.749	0.872	1.04	0.751	0.904	0.548	0.519	0.494	0.53	0.937	0.946	0.897	0.961	0.44	0.433	0.533	0.487
NCI-H2347	0.655	0.995	1.12	1.11	1.14	0.422	0.399	0.389	0.37	0.984	1.05	1.24	0.819	0.659	0.748	0.807	0.732
LC-2-ad	0.775	0.837	0.952	0.9	0.592	0.455	0.485	0.511	0.411	0.975	1.03	1.02	0.947	0.8	0.842	0.854	0.841
